Measured values published in publication PMC10147690, “Human TRPV1 structure and inhibition by the analgesic SB-366791” (Nature Communications, 2023).
Values joined by “and” are separate entries in the source; they are usually repeats but may differ in a detail not shown here. Equal entries are not always repeated. Where two headings read alike, the source gives them in different places.

What was measured:
[1] = tested on: panel of 47 different targets, including G-protein-coupled receptors and voltage-gated calcium-channels; settings: cited from earlier work
[2] = target: T1, hTRPV1 (Homo sapiens, UniProt Q8NER1); experiment: whole-cell patch-clamp, SB-366791 inhibition of pH 5-induced current, wild-type hTRPV1; format: cell-based; parameters: we used the same wild-type full-length construct to determine the hTRPV1 structure; expressed in transfected cells; host or cells: HEK293T ΔPIEZO1 cells, pIRES-EGFP plasmid
[3] = target: T1, hTRPV1; experiment: whole-cell patch-clamp at -40 mV, SB-366791 inhibition of capsaicin-activated hTRPV1 current and recovery; format: cell-based; parameters: we used the same wild-type full-length construct to determine the hTRPV1 structure; expressed in transfected cells; host or cells: HEK293T ΔPIEZO1 cells, pIRES-EGFP plasmid; I (Cap), hTRPV1 peak current amplitude / I (SB), hTRPV1 peak current amplitude: unit not given here
[4] = tested on: opiate-mediated behaviors; parameters: method as in PMID 27730727; settings: rat studies; cited from earlier work
[5] = target: T2, hTRPV1 L515A (Homo sapiens, UniProt Q8NER1, L515A); experiment: whole-cell patch-clamp, SB-366791 inhibition of pH 5-induced current, L515A; format: cell-based; settings: for I / Imax: +80 mV, individual cells
T2 construct: we used the same wild-type full-length construct to determine the hTRPV1 structure; expressed in transfected cells; host or cells: HEK293T ΔPIEZO1 cells, pIRES-EGFP plasmid

[6] = target: T3, hTRPV1 E693A (Homo sapiens, UniProt Q8NER1, E693A); experiment: whole-cell patch-clamp, SB-366791 inhibition of pH 5-induced current, E693A; format: cell-based; settings: for I / Imax: individual cells
T3 construct: we used the same wild-type full-length construct to determine the hTRPV1 structure; expressed in transfected cells; host or cells: HEK293T ΔPIEZO1 cells, pIRES-EGFP plasmid

[7] = target: T4, hTRPV1 R557A (Homo sapiens, UniProt Q8NER1, R557A); experiment: whole-cell patch-clamp, SB-366791 on pH-induced current, R557A; format: cell-based; settings: pH 5
T4 construct: expressed in transfected cells; host or cells: HEK293 cells

[8] = target: T5, hTRPV1 L547R (Homo sapiens, UniProt Q8NER1, L547R); experiment: whole-cell patch-clamp, SB-366791 inhibition of pH 5-induced current, L547R; format: cell-based
T5 construct: we used the same wild-type full-length construct to determine the hTRPV1 structure; expressed in transfected cells; host or cells: HEK293T ΔPIEZO1 cells, pIRES-EGFP plasmid

[9] = target: T6, hTRPV1 E570A (Homo sapiens, UniProt Q8NER1, E570A); experiment: whole-cell patch-clamp, SB-366791 on pH-induced current, E570A; format: cell-based; settings: pH 5
T6 construct: expressed in transfected cells; host or cells: HEK293 cells

[10] = target: T1, hTRPV1; settings: no apparent change in the maximal response; cited from earlier work
[11] = tested on: glutamatergic transmission in a subset of neurons; settings: pre-synaptic TRPV1-dependent mechanism following peripheral inflammation; cited from earlier work
[12] = target: T7, hTRPV1 Y511A (Homo sapiens, UniProt Q8NER1, Y511A); experiment: whole-cell patch-clamp, SB-366791 inhibition of pH 5-induced current, Y511A; format: cell-based; settings: for I / Imax: individual cells
T7 construct: expressed in transfected cells; host or cells: HEK293T ΔPIEZO1 cells, pIRES-EGFP plasmid

[13] = tested on: acute pain; settings: co-administered with a calcium channel blocker; mice; cited from earlier work
[14] = target: T8, hTRPV1 T550A (Homo sapiens, UniProt Q8NER1, T550A); experiment: whole-cell patch-clamp, SB-366791 inhibition of pH 5-induced current, T550A; format: cell-based
T8 construct: we used the same wild-type full-length construct to determine the hTRPV1 structure; expressed in transfected cells; host or cells: HEK293T ΔPIEZO1 cells, pIRES-EGFP plasmid

[15] = tested on: bone cancer pain; settings: cited from earlier work
[16] = tested on: mouse TRPV1; parameters: method as in PMID 27638213; settings: cited from earlier work
[17] = target: T6, hTRPV1 E570A; experiment: whole-cell patch-clamp, capsaicin on hTRPV1 E570A; format: cell-based; settings: 10 μM capsaicin
[18] = target: T7, hTRPV1 Y511A; experiment: whole-cell patch-clamp, capsaicin on hTRPV1 Y511A; format: cell-based; settings: not shown
[19] = tested on: rat TRPV1; parameters: method as in PMID 27638213; settings: cited from earlier work
[20] = tested on: rat TRPV1 Y511A; settings: cited from earlier work
[21] = target: T4, hTRPV1 R557A; experiment: whole-cell patch-clamp, capsaicin on hTRPV1 R557A; format: cell-based; settings: 10 μM capsaicin
[22] = tested on: squirrel TRPV1; parameters: method as in PMID 27638213; settings: cited from earlier work
[23] = target: the molecule itself; experiment: cryo-EM structure; apo hTRPV1 in cNW11 nanodiscs with soybean lipids or POPC:POPE:POPG (3:1:1); 150 mM NaCl, 20 mM Tris pH 8.0, 1 mM bME

COc1cccc(NC(=O)/C=C/c2ccc(Cl)cc2)c1 [SB-366791, N-(3-methoxyphenyl)−4-chlorocinnamide]
effect on a panel of 47 different targets [1]: little or no effect
IC50 ([2]; WT, pH 5, Hill fits of individual cells, read-out: SB-366791 IC50): 5.41 nM and 45 nM and 38 nM and 6.46 nM and 26 nM and 13 nM and 15 nM
SB-366791-resistant fraction ([2]; WT, pH 5, individual cells): 0.177 and 0.291 and 0.285 and 0.295 and 0.181 and 0.106 and 0.205
IC50 ([2]; WT, response to reviewers, read-out: inhibition by SB-366791, IC50): 21 nM
IC50 ([2]; wild-type, pH 5, +80 mV, mean ± SEM, n = 7, read-out: IC50 of SB-366791): 21 ± 6 nM
proportion of blocker-resistant current ([2]; wild-type, pH 5, mean ± SEM, n = 7): 0.220 ± 0.027 and 0.22 ± 0.03
inhibition of capsaicin-activated hTRPV1 ([3]; 10 µM SB-366791 co-applied with 1 µM capsaicin, -40 mV): complete inhibition
I (SB), hTRPV1 peak current amplitude ([3]; Fig 2b, 10 µM SB-366791 in the presence of 1 µM capsaicin, 10 s after SB-366791 application, individual cells, listed as SB): 0.010 and 0.020 and 0.060 and 0.011
effect on opiate-mediated behaviors [4]: impair opiate-mediated behaviors
sensitivity to inhibition by the blocker [5]: completely insensitive
I / Imax ([5]; SB-366791 0.0001 μM): 1.151 and 1.003 and 0.775 and 1.067
I / Imax ([5]; SB-366791 0.001 μM): 0.856 and 0.881 and 0.592 and 0.984
I / Imax ([5]; SB-366791 0.01 μM): 0.762 and 0.808 and 0.507 and 0.880
I / Imax ([5]; SB-366791 0.1 μM): 0.817 and 0.939 and 0.604 and 0.943
I / Imax ([5]; SB-366791 1 μM): 0.888 and 1.233 and 0.959 and 1.206
I / Imax ([5]; SB-366791 10 μM): 0.734 and 1.125 and 1.046 and 1.211
I / Imax ([6]; SB-366791 0.0001 μM, pH 5, +80 mV): 0.860 (2×) and 0.830 and 0.980 and 0.850 and 0.890
I / Imax ([6]; SB-366791 0.01 μM, pH 5, +80 mV): 0.820 and 0.780 and 0.880 and 0.830
IC50 ([6]; pH 5, +80 mV, mean ± SEM, n = 6, read-out: IC50 of SB-366791): 100 ± 11 nM
IC50 ([6]; pH 5, Hill fits of individual cells, read-out: SB-366791 IC50): 121 nM and 70 nM and 137 nM and 75 nM and 92 nM and 103 nM
SB-366791-resistant fraction ([6]; pH 5, individual cells): 0.417 and 0.362 and 0.602 and 0.396 and 0.427 and 0.420
fraction of blocker-insensitive current ([6]; pH 5, mean ± SEM, n = 6): 0.440 ± 0.034
IC50 ([6]; response to reviewers, read-out: inhibition by SB-366791, IC50): 100 nM
inhibition of current induced by changes in pH [7]: did not induce any inhibition
sensitivity to inhibition by the blocker [8]: completely insensitive
inhibition of current induced by changes in pH [9]: did not induce any inhibition
effect on capsaicin concentration dependence of hTRPV1-mediated calcium uptake [10]: rightward shift
effect on glutamatergic transmission [11]: inhibiting glutamatergic transmission
IC50 ([12]; +80 mV, mean ± SEM, n = 7): 253 ± 75 nM
I / Imax ([12]; SB-366791 0.0001 μM, +80 mV): 0.951 and 0.974 and 0.889 and 1.022
I / Imax ([12]; SB-366791 0.001 μM, +80 mV): 0.916 and 0.924 and 0.887 and 0.985
I / Imax ([12]; SB-366791 0.01 μM, +80 mV): 0.893 and 0.810 and 0.838 and 0.939
I / Imax ([12]; SB-366791 0.1 μM, +80 mV): 0.831 (2×) and 0.718 (2×)
I / Imax ([12]; SB-366791 1 μM, +80 mV): 0.638 and 0.474 and 0.443 and 0.511
I / Imax ([12]; SB-366791 10 μM, +80 mV): 0.537 and 0.399 and 0.380 and 0.562
proportion of blocker-resistant current ([12]; mean ± SEM, n = 7): 0.490 ± 0.070
synergistic increase of antinociceptive effect [13]: 15 fold
sensitivity to inhibition by the blocker [14]: completely insensitive
effect on analgesia by systemic morphine [15]: effectively potentiate the analgesic effects of systemic morphine

COc1cc(CNC(=O)CCCC/C=C/C(C)C)ccc1O [capsaicin]
EC50 [16]: 776 ± 52 nM
I (Cap), hTRPV1 peak current amplitude ([3]; Fig 2b, 1 µM capsaicin, -40 mV, individual cells, listed as Cap): 0.380 and 0.430 and 4.800 and 2.000 and 1.600
currents induced by capsaicin [17]: did not induce any currents
sensitivity to capsaicin [18]: insensitive
EC50 [19]: 527 ± 53 nM
sensitivity to capsaicin [20]: insensitive
currents induced by capsaicin [21]: did not induce any currents
EC50 [22]: 529 ± 32 nM

B1: human TRPV1 (natural protein, UniProt Q8NER1 1-839, looked up)
chain: MKKWSSTDLGAAADPLQKDTCPDPLDGDPNSRPPPAKPQLSTAKSRTRLFGKGDSEEAFPVDCPHEEGELDSCPTITVSPVITIQRPGDGPTGARLLSQDSVAASTEKTLRLYDRRSIFEAVAQNNCQDLESLLLFLQKSKKHLTDNEFKDPETGKTCLLKAMLNLHDGQNTTIPLLLEIARQTDSLKELVNASYTDSYYKGQTALHIAIERRNMALVTLLVENGADVQAAAHGDFFKKTKGRPGFYFGELPLSLAACTNQLGIVKFLLQNSWQTADISARDSVGNTVLHALVEVADNTADNTKFVTSMYNEILMLGAKLHPTLKLEELTNKKGMTPLALAAGTGKIGVLAYILQREIQEPECRHLSRKFTEWAYGPVHSSLYDLSCIDTCEKNSVLEVIAYSSSETPNRHDMLLVEPLNRLLQDKWDRFVKRIFYFNFLVYCLYMIIFTMAAYYRPVDGLPPFKMEKTGDYFRVTGEILSVLGGVYFFFRGIQYFLQRRPSMKTLFVDSYSEMLFFLQSLFMLATVVLYFSHLKEYVASMVFSLALGWTNMLYYTRGFQQMGIYAVMIEKMILRDLCRFMFVYIVFLFGFSTAVVTLIEDGKNDSLPSESTSHRWRGPACRPPDSSYNSLYSTCLELFKFTIGMGDLEFTENYDFKAVFIILLLAYVILTYILLLNMLIALMGETVNKIAQESKNIWKLQRAITILDTEKSFLKCMRKAFRSGKLLQVGYTPDGKDDYRWCFRVDEVNWTTWNTNVGIINEDPGNCEGVKRTLSFSLRSSRVSGRHWKNFALVPLLREASARDRQSAQPEEVYLRQFSGSLKPEDAEVFKSPAASGEK
notes: human TRPV1, wild-type full-length construct; residues 1-839 by the printed numbers (models hold 115-769 or 199-754); the tags of the construct are not described; Homotetramer; Apo samples in cNW11 nanodiscs, the SB-366791 sample in GDN detergent; also called hTRPV1; hTRPV1Apo; source: HEK 293S GnTI- cells transduced with baculovirus, purified (strep resin, SEC)
stoichiometry N [23]: 4
